Measured values published in article PMC8854749, “Celastrol Inhibits Canine Mammary Tumor Cells by Inducing Apoptosis via the Caspase Pathway” (Frontiers in Veterinary Science, 2022).

Legend:
Type in all cases: cell-based, canine
[1] = test system: CMT-7364 cells; test: Cell migration (wound healing) assay; details: 0.9 μM, 24 h, relative to cells without celastrol
Experimental: (§1) CMT-7364 and CIPp cell suspensions were uniformly seeded in a 6-well cell culture plate at a concentration of 1 × 10^5 cells/well. After the cells were fully confluent (more than 90 % of confluence), a 200-μl sterile pipette tip was used to scratch a straight line in the cells of each well. PBS was used to wash away the cell debris and floated cells, and 10% serum-containing medium (control group) and 10% serum-containing medium with celastrol (0.3 μM or 0.9 μM) (test group) were added, respectively, then cells were incubated for 24 h in an incubator. Mitomycin C (1 μM) was used to inhibit cell proliferation. Images of cell migration (wound healing) of the same field were taken with an inverted microscope at 0 and 24 h time points, respectively, followed by analyzing the cell migration rate with ImageJ software (version 1.8.0, United States). In brief, 6–8 horizontal lines were randomly drawn in the wound area to calculate the average value of the distance between cells. The migration rate = [(Distance celastrol0h-Distance celastrol24h) / (Distance control0h-Distance control24h)] × 100%.

[2] = test system: CIPp cells; test: Cell migration (wound healing) assay; details: 0.9 μM, 24 h, relative to cells without celastrol
Experimental: as §1

[3] = test system: CMT-7364 cells; test: Cell cycle distribution, PI staining, flow cytometry; details: 24 h (0 μM: 5.6%)
Experimental: (§2) To investigate whether celastrol inhibits the proliferation of canine mammary tumor cells by regulating the cell cycle, we treated canine mammary tumor cells with celastrol for 24 h, then stained cells with PI followed by flow cytometry to detect the percentage of different cell cycle phases. […] Furthermore, we detected the expression of mRNA and protein of cell cycle–related factors by qPCR and Western blotting.

[4] = test system: CIPp cells; test: as above; details: 24 h (0 μM: 12.0%)
Experimental: as §2

[5] = test system: CMT-7364 cells; test: Annexin V-FITC/PI apoptosis detection, fluorescence microscope; details: 0.3 μM or 0.9 μM, 24 h, vs control group
Experimental: (§3) CMT-7364 and CIPp cells were seeded in a 6-well plate at a concentration of 1 × 10^5 cells/well, treated with different concentrations of celastrol (0, 0.3, 0.9 μM) for 24 h. Then cells were double-stained by Annexin V-FITC/PI, incubating at room temperature for 20 min in the dark, followed by observing with a fluorescence microscope. Green fluorescence represents Annexin V-FITC staining positive, and red fluorescence represents PI staining positive. Apoptotic cells were single-stained by green fluorescence, late apoptotic or necrotic cells were double-stained by green and red fluorescence, and normal cells were not stained by fluorescence. Finally, pictures of the cells were taken by a fluorescence microscope.

[6] = test system: CIPp cells; test: as above; details: 0.3 μM or 0.9 μM, 24 h, vs control group
Experimental: as §3

[7] = test system: CMT-7364 cells; test: Cell Counting Kit-8 (CCK-8) cell viability; details: for IC50: Canis lupus familiaris, CCK-8
Experimental: (§4) CMT-7364, CIPp, and MDCK cells were plated in a 96-well plate with 2,000 cells per well and maintained in 5% CO2 at 37°C for 24 h until the cells adhered to the bottom. Then the medium was removed, the new media containing different concentrations (0, 0.1, 0.4, 0.6, 0.8, 1.2, and 1.6 μM) of celastrol were added, and incubated for 12, 24, 36, and 48 h. Ten microliters of the cell counting kit-8 (CCK-8) were added to each well for 1 h incubation. At each time point, the OD value was read by a microplate reader at 450 nm wavelength, and the cell viability with each drug concentration at different time points was calculated: cell relative viability=[(OD 450celastrol-OD 450blank) / (OD 450control-OD 450blank)] × 100%.

[8] = test system: CIPp cells; test: Cell Counting Kit-8 (CCK-8) cell viability; details: for IC50: Canis lupus familiaris, CCK-8
Experimental: as §4

[9] = test system: CMT-7364 cells; test: Annexin V-FITC/PI apoptosis flow cytometry; details: 0.3 and 0.9 μM, 24 h, vs control group
Experimental: (§5) CMT-7364 and CIPp cells were seeded in a 6-well plate at a concentration of 1 × 10^5 cells/well, treated with different concentrations of celastrol (0, 0.3, and 0.9 μM) for 24 h. The cell culture medium was collected, the cells were washed once with PBS, digested with 0.25% trypsin, the cells were resuspended with the collected cell culture medium and kept after centrifugation. The cells were stained with Annexin V-FITC Apoptosis Detection Kit, and Guava easy Cyte5 (Merck millipore, United States) was used to detect the stained cells, and the data were analyzed by using Flow Jo software (version 10.0.7, United States).

[10] = test system: CIPp cells; test: Annexin V-FITC/PI apoptosis flow cytometry; details: 0.3 and 0.9 μM, 24 h, vs control group
Experimental: as §5

[11] = test system: MDCK cells; test: Cell Counting Kit-8 (CCK-8) cell viability, non-tumor cell line; details: for IC50: Canis lupus familiaris, MDCK cells (non-tumor canine cell line), CCK-8
Experimental: as §4

CC1=C(O)C(=O)C=C2C1=CC=C1[C@@]2(C)CC[C@@]2(C)[C@@H]3C[C@](C)(C(=O)O)CC[C@]3(C)CC[C@]12C [celastrol, Celastrol]
migration rate [1]: 55.33 ± 4.91% | migration rate [2]: 52.00 ± 1.73% | percentage of cell cycle G2/M phase ([3]; 0.3 μM): 20.3% | percentage of cell cycle G2/M phase ([3]; 0.9 μM): 32.7% | percentage of cell cycle G2/M phase ([4]; 0.3 μM): 21.9% | percentage of cell cycle G2/M phase ([4]; 0.9 μM): 34.4% | green fluorescence (Annexin V-FITC, apoptotic cells) [5]: increased | green fluorescence (Annexin V-FITC, apoptotic cells) [6]: increased | cell viability ([7]; 0.1-1.6 μM, 12-48 h): decreased the viability of the cells in a dose- and time-dependent manner | IC50 ([7]; 24 h): 1240 nM | IC50 ([7]; 48 h): 1010 nM | proliferation ([7]; concentration <1.2 μM): significantly inhibited | cell viability ([8]; 0.1-1.6 μM, 12-48 h): decreased the viability of the cells in a dose- and time-dependent manner | IC50 ([8]; 24 h): 1160 nM | IC50 ([8]; 48 h): 968 nM | proliferation ([8]; concentration <1.2 μM): significantly inhibited | percentages of early and late apoptotic cells [9]: increased in a dose-dependent manner | percentages of early and late apoptotic cells [10]: increased in a dose-dependent manner | IC50 ([11]; 24 h): 1810 nM | IC50 ([11]; 48 h): 1860 nM | proliferation ([11]; MDCK cells, concentration <1.2 μM): did not significantly inhibit
